Experiment in all cases: inhibition of tumour cell growth, NCI panel, 48 h
Test [1] deals with 786-0 renal.
Test [2] concerns ACHN renal.
Test [3] has as its system CAKI-1 renal.
Test [4] concerns EKVX NSCLC.
The subject of test [5] is HCC-2998 colon.
Test [6] concerns HOP-92 NSCLC.
Test [7] deals with IGROV1 ovarian.
The subject of test [8] is MCF7 breast.
The test system of test [9] is MDA-MB-435.
Test [10] deals with MOLT-4 leukemia.
The subject of test [11] is NCI-H460 lung.
The test system of test [12] is NCI/ADR-RES ovarian.
Test [13] deals with RXF 393 renal.
The test system of test [14] is SF-539 CNS.
The subject of test [15] is SK-OV-3 ovarian.
Test [16] concerns SNB-19 CNS.
Test [17] concerns SW-620 colon.
Test [18] concerns T-47D breast.
Test [19] concerns UACC-257 melanoma.

The values that follow come from PubChem BioAssay (NCI).

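How tested: cells in 96-well plates exposed to compound for 48 hours at five concentrations. TGI marks complete inhibition of growth.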

For the molecule `CCC1(C)C=Cc2c(cc(OC)c3c(=O)c4ccccc4n(C)c23)O1` (stereo not given), the TGI in test [1] was more than 10 µM; in test [2], more than 10 µM; in [3], 2.53 µM; in test [4], more than 10 µM; in test [5], more than 10 µM; in test [6] it was more than 10 µM. Besides, the TGI in [7], in [8], in test [9], in test [10], in test [11] and in test [12] was more than 10 µM each time. For the same molecule, the TGI in test [13] is 5.52 µM; in test [14], more than 10 µM; in [15] it was more than 10 µM; in [16] it was more than 10 µM; in test [17] it was more than 10 µM; in [18] it was more than 10 µM. The same molecule returned a TGI in test [19] of more than 10 µM.

Take `CCOc1c2ccsc2c(OCC)c2ccsc12`: the TGI in [1] is more than 100 µM; in [2], more than 100 µM; in test [3], more than 100 µM; in test [4], more than 100 µM; in [5], more than 75.5 µM; in [6] it was 86.2 µM. For the same molecule, the TGI was more than 100 µM in test [7]; 31.7 µM in test [8]; 3.15 µM in test [9]; more than 28.5 µM in test [10]; more than 100 µM in [11]; more than 100 µM in [12]. The TGI was more than 24.2 µM in test [13]; 9.79 µM in test [14]; more than 100 µM in test [15]; more than 100 µM in [16]; more than 100 µM in test [17]; more than 100 µM in test [18]. In addition, the TGI in test [19] was more than 100 µM.

For `COc1c2c(c(OC)c3c1c(=O)c1ccccc1n3C)OCO2`, the TGI in [1], in [2], in test [3], in [4], in [5] and in [6] was more than 100 µM throughout. In addition, the TGI in test [7] is more than 100 µM; in [8], more than 100 µM; in test [9] it was 6.46 µM; in test [10], more than 31.6 µM; in [11], 51.2 µM; in test [12], more than 100 µM. For the same molecule, the TGI in test [13] is more than 100 µM; in test [14], more than 90.7 µM; in test [15], more than 100 µM; in [16], more than 100 µM; in [17], more than 100 µM; in test [18], more than 100 µM. The molecule also yielded a TGI in [19] of more than 100 µM.

`CCOC(=O)c1cc2cc(N(C(C)=O)C(C)=O)ccc2s1`: the TGI in [1] is more than 100 µM; in [2], 62.3 µM; in test [3], more than 100 µM; in [4], 55.9 µM; in test [5] it was more than 100 µM; in [6], more than 100 µM. Also, the TGI in test [7] was more than 100 µM; in test [8] it was more than 100 µM; in test [9] it was more than 100 µM; in test [10], 51 µM; in test [11], more than 100 µM; in test [12] it was more than 100 µM. In addition, the TGI in test [13] was 42.7 µM; in test [14] it was 92.3 µM; in [15], more than 100 µM; in test [16] it was more than 100 µM; in test [17] it was more than 100 µM; in test [18] it was 81.3 µM. The TGI in test [19] is more than 100 µM.

Regarding `Cn1c(=O)oc2cc(C(=O)CSC(=S)N3CCCCCC3)ccc21`, the TGI in [1], in test [2], in test [3], in [4], in test [5] and in test [6] was more than 100 µM each time. Also, the TGI in test [7], in test [8], in test [9], in test [10], in test [11] and in test [12] was more than 100 µM throughout. Moreover, the TGI in [13], in test [14], in test [15], in test [16], in test [17] and in test [18] was more than 100 µM each time. The molecule also yielded a TGI in [19] of more than 100 µM.

Regarding `CCOC(=O)c1nc2cc(N3CCOCC3)c(F)cc2[nH]c1=O`, the TGI in test [1], in test [2], in test [3], in test [4], in test [5] and in test [6] was more than 100 µM in each case. Further, the TGI in test [7], in [8], in [9], in test [10], in test [11] and in test [12] was more than 100 µM each time. In addition, the TGI in test [13], in test [14], in test [15], in test [16], in test [17] and in test [18] was more than 100 µM throughout. The molecule further registered a TGI in [19] of more than 100 µM.

Turning to `CC1=C(/C=C/C(C)=C/C=C/C(C)=C/C(=O)OCC2OC(n3cc(F)c(=O)[nH]c3=O)CC2OC(=O)/C=C(C)/C=C/C=C(C)/C=C/C2=C(C)CCCC2(C)C)C(C)(C)CCC1` (stereo not given), the TGI was more than 46.1 µM in [1]; more than 48.3 µM in test [2]; more than 100 µM in [3]; more than 100 µM in [4]; 15 µM in [5]; 37.1 µM in [6]. The TGI is 20 µM in [7]; 36.8 µM in test [8]; more than 65.8 µM in [9]; more than 100 µM in [10]; more than 26.7 µM in [11]; more than 100 µM in [12]. The TGI is more than 100 µM in [13]; more than 100 µM in test [14]; more than 100 µM in test [15]; more than 100 µM in test [16]; more than 52.5 µM in [17]; more than 64.7 µM in test [18]. This molecule returned a TGI in [19] of more than 92.1 µM.

With `CCOP(=O)(OCC)C(NC(=O)OCC(Cl)(Cl)Cl)n1nnc(C(=O)OC)c1C(=O)OC` (stereo not given), the TGI in test [1], in test [2], in test [3], in test [4], in test [5] and in test [6] was more than 100 µM in each case. For the same molecule, the TGI in test [7], in [8], in test [9], in test [10], in test [11] and in [12] was more than 100 µM throughout. For the same molecule, the TGI in test [13], in [14], in test [15], in [16], in test [17] and in test [18] was more than 100 µM each time. In [19], this molecule returned a TGI of more than 100 µM.

Turning to `CN(C)c1nc(N(C)C)nc(N(C)C)n1`, the TGI is more than 150 µM in test [1]; more than 150 µM in test [2]; more than 140 µM in [3]; more than 150 µM in [4]; more than 123 µM in [5]; more than 150 µM in test [6]. Moreover, the TGI is more than 135 µM in test [7]; more than 150 µM in test [8]; more than 150 µM in [9]; 136 µM in test [10]; more than 150 µM in [11]; more than 150 µM in [12]. The TGI in test [13] was more than 150 µM; in test [14], more than 142 µM; in test [15], more than 150 µM; in test [16], more than 150 µM; in test [17], more than 150 µM; in test [18], more than 150 µM. In test [19], this molecule yielded a TGI of more than 150 µM.

For `Cc1ccc(/C=C2\CN(C)CC3=C2OC(N)=C(C#N)C3c2ccc(C)cc2)cc1` (stereo not given), the TGI was 32 µM in test [1]; 50 µM in test [2]; 74.6 µM in test [3]; 56.5 µM in test [4]; 37.2 µM in test [5]; 15.9 µM in test [6]. The TGI is 39.4 µM in test [7]; 47.8 µM in test [8]; 34.7 µM in test [9]; more than 51 µM in [10]; 34.3 µM in [11]; more than 100 µM in test [12]. Besides, the TGI in test [13] is 28.3 µM; in test [14], more than 100 µM; in [15] it was 35.3 µM; in [16] it was 73.4 µM; in test [17] it was more than 100 µM; in test [18] it was 71.2 µM. In test [19], this molecule displayed a TGI of 43.1 µM.
